Tests used:
SK-BR-3 cells = settings: treated 1 hour, counted after 3 days, doxorubicin concentration
Procedure: (A) SK-BR-3 cells. […] Cells in culture were treated for 1 hour with: conventional immunoliposomes (triangles); sterically stabilized (2 mole % PEG-PE) immunoliposomes (closed circles); control (irrelevant antibody) sterically stabilized (2 mole % PEG-PE) immunoliposomes (open circles); or free doxorubicin alone (closed squares). Immunoliposomes contained 60-70 μg antibody/μmol phospholipid and 55-80 μg doxorubicin/μmol phospholipid; antibody/doxorubicin ratio was 0.8-1.2. Cells were counted 3 days after treatment as described in Methods.
To test the cytotoxicity of doxorubicin-loaded immunoliposomes, SK-BR-3 or WI-38 cells in monolayer culture were incubated with free doxorubicin or doxorubicin-loaded immunoliposomes for 1 hour, and then washed extensively with media. The cells were then further incubated at 37° C. for 3 days, after which cell number was estimated by crystal violet staining as described above.

WI-38 cells = assay: cytotoxicity of doxorubicin-loaded immunoliposomes, WI-38 cells; format: cell-based; settings: minimal p185^HER2

COc1cccc2c1C(=O)c1c(O)c3c(c(O)c1C2=O)C[C@@](O)(C(=O)CO)C[C@@H]3O[C@H]1C[C@H](N)[C@H](O)[C@H](C)O1 [doxorubicin]
IC50 cytotoxicity (SK-BR-3 cells): approximately 0.3 μg/ml | cytotoxicity against WI-38 cells (WI-38 cells): significant dose-dependent cytotoxicity

Reference: patent publication US7507407B2, “Immunoliposomes that optimize internationalization into target cells” (The Regents of the University of California, priority 1994, dated 2009)
